According to US20200392158A1, “INHIBITORS OF LEUCINE RICH REPEAT KINASE 2” (GLAXOSMITHKLINE INTELLECTUAL PROPERTY DEVELOPMENT LIMITED, priority 2017, published 2020):

Experiments:
[1] = biological target: T1, LRRK2 kinase in SH-SY5Y cells over-expressing recombinant full length LRRK2 (Homo sapiens, UniProt Q5S007); test: Recombinant cellular LRRK2 AlphaScreen assay (LRRK2 Ser935 phosphorylation); format: cell-based; details: 60 min
T1 construct: A BacMam virus expressing full length recombinant LRRK2 was purchased from Invitrogen; host or cells: SH-SY5Y human neuroblastoma cells transduced with BacMam LRRK2 virus
Summary of the method: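 SH-SY5Y cells transduced with BacMam full-length LRRK2 (MOI 50) for 24 h, then treated 60 min at 37 °C with compound (11-point 1:4 series, top 10 uM, 0.1% DMSO). Lysates probed by AlphaScreen for pSer935 vs total LRRK2; values fitted to a sigmoidal dose-response model.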

[2] = test system: human hepatocytes; test: Metabolic stability assay in hepatocytes; format: in vitro ADME; details: 0.5 μM test compound, intrinsic clearance
Method: c. Metabolic Stability Assay
Metabolic stability of compounds of the invention was evaluated in hepatocytes from human and preclinical species (e.g. rat). A test compound (0.5 μM) was incubated with 0.5 million viable hepatocytes at 37° C. in a 95% humidified incubator supplied with 5% CO2. 7-ethoxycoumarin was used as positive control and was treated in the same manner as the test compound. The incubation samples were gently mixed at 150 rpm. Incubation medium was Williams' Medium E containing 2 mM GlutaMAX™ and 25 mM HEPES. Samples were removed from incubation at a specified time interval (tx): 0, 15, 30, 60, 90 and 120 min. Reactions were terminated by adding equal volume of ice-cold acetonitrile/methanol/acetic acid (80/20/1, v/v/v) containing an internal standard (e.g. 100 ng/mL to butamide as internal standard). […] The instrument responses of the test compound and the internal standard were measured using a compound specific LC/MS/MS methodology. The percentage of remaining test compound is calculated from the peak area ratio between the remaining test compound after incubation (tx) and the test compound peak area at the beginning of incubation (tx=0 min).
The half-life (t1/2) is calculated using the following equation: […]
Metabolic stability of a test compound is expressed as Intrinsic Clearance (Clint) and is calculated from the half-life (t1/2) using the following equation: […]

[3] = biological target: T2, full length G2019 human LRRK2 (Homo sapiens, UniProt Q5S007, R50H); test: Full length G2019 human LRRK2 inhibition mass spectrometry assay; format: biochemical; details: LRRKtide to phospho-LRRKtide conversion, RapidFire MS, 2 mM ATP
T2 construct: made in house; host or cells: HEK293 6E cells transduced with BacMam virus (virus generated in Sf9 cells)
Summary of the method: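 Purified full-length Flag-tagged G2019 LRRK2, ~25 nM, with 25 μM LRRKtide and 2 mM ATP in 50 mM Hepes pH 7.2, 10 mM MgCl2, 150 mM NaCl, 1 h at room temperature. Quenched with formic acid; phospho- and unphosphorylated LRRKtide measured by RapidFire MS. pIC50 from 4-parameter fit of % conversion, 11 points, top 100 μM.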

T2 sequence (Q5S007 with tags, fused parts or gaps R50H): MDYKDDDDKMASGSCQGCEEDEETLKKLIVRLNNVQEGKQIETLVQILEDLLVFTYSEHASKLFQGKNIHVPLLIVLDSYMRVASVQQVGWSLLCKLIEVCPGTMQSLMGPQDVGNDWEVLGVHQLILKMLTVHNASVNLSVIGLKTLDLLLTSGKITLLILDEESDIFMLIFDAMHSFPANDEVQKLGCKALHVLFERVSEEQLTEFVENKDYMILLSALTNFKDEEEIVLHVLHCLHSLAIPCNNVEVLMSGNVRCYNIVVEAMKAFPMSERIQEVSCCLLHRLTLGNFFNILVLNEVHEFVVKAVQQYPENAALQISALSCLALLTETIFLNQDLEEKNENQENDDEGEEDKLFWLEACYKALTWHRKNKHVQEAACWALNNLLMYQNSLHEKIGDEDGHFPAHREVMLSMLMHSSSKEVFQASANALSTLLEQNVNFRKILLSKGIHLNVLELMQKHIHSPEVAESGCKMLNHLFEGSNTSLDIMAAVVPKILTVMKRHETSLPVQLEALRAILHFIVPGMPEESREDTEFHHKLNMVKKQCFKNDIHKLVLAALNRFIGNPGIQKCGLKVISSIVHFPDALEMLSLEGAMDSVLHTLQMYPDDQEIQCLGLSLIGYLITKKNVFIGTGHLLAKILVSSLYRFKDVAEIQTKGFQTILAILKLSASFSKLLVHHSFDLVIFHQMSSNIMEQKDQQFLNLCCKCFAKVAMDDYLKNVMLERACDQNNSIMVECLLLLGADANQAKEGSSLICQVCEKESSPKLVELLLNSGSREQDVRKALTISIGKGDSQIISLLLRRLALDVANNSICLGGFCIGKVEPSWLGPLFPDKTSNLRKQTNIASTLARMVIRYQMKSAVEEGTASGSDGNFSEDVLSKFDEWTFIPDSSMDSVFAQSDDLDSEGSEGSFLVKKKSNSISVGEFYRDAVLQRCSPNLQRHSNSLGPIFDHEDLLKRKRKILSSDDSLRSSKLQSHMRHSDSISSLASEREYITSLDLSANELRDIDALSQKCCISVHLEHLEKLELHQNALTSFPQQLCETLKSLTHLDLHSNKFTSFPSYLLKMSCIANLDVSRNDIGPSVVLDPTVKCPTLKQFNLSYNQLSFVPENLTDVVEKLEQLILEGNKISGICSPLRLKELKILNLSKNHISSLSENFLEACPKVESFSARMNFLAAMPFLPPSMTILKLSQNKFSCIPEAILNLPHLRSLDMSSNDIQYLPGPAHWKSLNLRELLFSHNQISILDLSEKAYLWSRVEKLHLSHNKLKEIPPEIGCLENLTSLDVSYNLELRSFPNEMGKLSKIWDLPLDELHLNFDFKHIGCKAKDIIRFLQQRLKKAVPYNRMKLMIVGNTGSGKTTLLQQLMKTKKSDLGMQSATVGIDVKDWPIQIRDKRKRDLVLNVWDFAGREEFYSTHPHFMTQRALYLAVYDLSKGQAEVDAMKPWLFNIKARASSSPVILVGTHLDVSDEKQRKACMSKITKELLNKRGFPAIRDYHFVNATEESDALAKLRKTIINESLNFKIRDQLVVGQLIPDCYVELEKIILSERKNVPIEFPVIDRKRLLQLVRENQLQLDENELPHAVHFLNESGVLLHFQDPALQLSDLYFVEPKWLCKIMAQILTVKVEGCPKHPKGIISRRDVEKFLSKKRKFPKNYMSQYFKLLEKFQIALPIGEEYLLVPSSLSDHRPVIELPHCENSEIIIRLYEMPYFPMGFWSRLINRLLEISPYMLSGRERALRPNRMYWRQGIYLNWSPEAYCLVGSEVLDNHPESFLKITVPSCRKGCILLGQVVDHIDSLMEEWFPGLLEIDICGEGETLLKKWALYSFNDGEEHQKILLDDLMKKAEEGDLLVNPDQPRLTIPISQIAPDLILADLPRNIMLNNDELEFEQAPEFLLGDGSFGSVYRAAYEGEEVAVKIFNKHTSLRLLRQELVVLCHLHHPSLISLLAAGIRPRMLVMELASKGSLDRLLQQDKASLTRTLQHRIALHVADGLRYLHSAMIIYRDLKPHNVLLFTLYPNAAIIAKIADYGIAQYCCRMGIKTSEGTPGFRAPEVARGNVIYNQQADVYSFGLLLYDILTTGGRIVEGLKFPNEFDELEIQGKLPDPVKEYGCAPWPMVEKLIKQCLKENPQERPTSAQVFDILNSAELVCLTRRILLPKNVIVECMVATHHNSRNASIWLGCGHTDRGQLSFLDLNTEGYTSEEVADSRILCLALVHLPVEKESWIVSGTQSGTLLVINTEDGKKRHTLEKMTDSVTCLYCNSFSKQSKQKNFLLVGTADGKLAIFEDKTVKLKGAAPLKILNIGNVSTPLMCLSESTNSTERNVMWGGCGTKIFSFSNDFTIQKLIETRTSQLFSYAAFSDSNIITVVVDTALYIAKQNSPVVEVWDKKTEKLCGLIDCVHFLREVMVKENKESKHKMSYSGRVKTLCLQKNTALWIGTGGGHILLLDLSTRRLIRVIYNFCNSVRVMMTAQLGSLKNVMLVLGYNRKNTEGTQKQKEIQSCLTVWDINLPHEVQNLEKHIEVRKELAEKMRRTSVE
T1 sequence (Q5S007 whole entry): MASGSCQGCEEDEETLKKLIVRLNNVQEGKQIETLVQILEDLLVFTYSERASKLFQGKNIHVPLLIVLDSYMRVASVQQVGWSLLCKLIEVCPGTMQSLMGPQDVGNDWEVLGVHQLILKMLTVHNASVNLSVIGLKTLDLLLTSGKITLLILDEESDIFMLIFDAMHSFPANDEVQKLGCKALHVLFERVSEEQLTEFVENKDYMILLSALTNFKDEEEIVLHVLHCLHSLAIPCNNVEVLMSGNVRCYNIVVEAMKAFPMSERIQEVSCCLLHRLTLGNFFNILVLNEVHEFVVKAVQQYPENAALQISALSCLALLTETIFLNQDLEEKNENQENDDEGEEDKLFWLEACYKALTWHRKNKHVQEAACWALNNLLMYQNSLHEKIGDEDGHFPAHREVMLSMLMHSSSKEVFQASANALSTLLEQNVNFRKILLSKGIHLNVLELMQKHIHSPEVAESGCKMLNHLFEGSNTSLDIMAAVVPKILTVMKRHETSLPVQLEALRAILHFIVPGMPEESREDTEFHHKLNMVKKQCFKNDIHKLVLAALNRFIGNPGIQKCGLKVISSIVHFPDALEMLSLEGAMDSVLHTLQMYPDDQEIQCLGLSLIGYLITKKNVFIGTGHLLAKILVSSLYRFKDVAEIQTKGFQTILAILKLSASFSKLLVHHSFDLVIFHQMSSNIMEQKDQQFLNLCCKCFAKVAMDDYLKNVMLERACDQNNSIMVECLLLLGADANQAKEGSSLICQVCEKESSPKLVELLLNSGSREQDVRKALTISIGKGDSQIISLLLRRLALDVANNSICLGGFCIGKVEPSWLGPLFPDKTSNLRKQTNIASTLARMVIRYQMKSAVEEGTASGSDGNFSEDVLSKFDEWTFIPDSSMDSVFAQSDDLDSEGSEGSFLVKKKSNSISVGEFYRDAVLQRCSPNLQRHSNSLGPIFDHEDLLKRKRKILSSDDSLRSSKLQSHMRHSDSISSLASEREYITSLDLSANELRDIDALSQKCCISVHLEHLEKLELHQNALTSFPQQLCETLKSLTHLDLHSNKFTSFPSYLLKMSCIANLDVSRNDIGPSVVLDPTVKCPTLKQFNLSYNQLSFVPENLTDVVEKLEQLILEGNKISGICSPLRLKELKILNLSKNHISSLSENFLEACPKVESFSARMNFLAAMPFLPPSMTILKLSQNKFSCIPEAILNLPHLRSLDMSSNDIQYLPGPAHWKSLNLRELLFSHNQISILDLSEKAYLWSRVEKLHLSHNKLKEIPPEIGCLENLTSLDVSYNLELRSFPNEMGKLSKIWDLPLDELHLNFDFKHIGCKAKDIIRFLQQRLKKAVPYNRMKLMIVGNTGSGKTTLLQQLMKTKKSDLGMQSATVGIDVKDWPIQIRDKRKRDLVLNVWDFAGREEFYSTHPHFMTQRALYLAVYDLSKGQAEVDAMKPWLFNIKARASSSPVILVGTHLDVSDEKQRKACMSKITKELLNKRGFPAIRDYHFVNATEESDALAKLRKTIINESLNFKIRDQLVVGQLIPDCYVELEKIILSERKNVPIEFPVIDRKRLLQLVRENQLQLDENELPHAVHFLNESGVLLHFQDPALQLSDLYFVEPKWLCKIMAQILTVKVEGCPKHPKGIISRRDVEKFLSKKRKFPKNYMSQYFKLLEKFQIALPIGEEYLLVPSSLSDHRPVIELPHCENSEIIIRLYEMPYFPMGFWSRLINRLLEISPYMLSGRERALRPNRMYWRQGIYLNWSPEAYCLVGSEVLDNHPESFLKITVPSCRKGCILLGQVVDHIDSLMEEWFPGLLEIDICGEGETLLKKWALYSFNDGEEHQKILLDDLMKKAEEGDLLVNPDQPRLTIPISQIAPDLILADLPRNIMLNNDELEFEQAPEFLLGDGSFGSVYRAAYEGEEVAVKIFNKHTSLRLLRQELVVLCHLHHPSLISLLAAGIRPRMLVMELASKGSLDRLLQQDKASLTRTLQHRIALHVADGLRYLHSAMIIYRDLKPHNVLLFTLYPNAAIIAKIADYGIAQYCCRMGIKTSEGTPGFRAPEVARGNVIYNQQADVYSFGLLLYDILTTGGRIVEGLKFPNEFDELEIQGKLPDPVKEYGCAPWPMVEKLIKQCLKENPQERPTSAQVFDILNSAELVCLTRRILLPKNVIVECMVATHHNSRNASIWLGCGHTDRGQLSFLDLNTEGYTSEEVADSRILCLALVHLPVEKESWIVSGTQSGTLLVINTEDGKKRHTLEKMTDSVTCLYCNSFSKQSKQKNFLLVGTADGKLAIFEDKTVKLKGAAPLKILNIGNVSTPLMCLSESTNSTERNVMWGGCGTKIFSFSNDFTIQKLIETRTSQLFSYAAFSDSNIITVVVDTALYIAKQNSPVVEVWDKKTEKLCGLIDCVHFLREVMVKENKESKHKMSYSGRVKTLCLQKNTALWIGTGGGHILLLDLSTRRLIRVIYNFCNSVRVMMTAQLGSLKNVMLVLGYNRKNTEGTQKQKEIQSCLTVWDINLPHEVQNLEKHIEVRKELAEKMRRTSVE

| Compound | IC50 [1] [nM] | Clint (human) [2] [mL/min/g] | IC50 [3] [nM] |
| --- | --- | --- | --- |
| Cc1c2c(nn1C(=O)C1CC1)OCCCNc1nc(ncc1Cl)N2 [E362, 14-Chloro-5-cyclopropanecarbonyl-4-methyl-8-oxa-2,5,6,12,16, 17-hexaazatricyclo[11.3.1.0^3,7]heptadeca-1(16),3,6,13(17),14-pentaene] | ≤ 100 | > 10 |  |
| Cc1c2c(nn1C1CN(C3COC3)C1)OCC[C@@H](C)Nc1nc(ncc1Cl)N2 [E107, (11R)-14-chloro-4,11-dimethyl-5-[1-(oxetan-3-yl)azetidin-3-yl]-8-oxa-2,5,6,12,16,17-hexaazatricyclo[11.3.1.0^3,7]heptadeca-1(16),3,6,13(17),14-pentaene] | ≤ 100 |  | ≤ 100 |
| CCC1CCOc2nn(C3CCOCC3)c(C)c2Nc2ncc(Cl)c(n2)N1 (single isomer, unassigned) [E20, 14-chloro-11-ethyl-4-methyl-5-(oxan-4-yl)-8-oxa-2,5,6,12,16,17-hexaazatricyclo[11.3.1.0^3,7]heptadeca-1(16),3,6,13(17),14-pentaene] | ≤ 100 |  | ≤ 100 |
| COCCn1nc2c(c1C)Nc1ncc(Cl)c(n1)NCCCO2 [E116, 14-Chloro-5-(2-methoxyethyl)-4-methyl-8-oxa-2,5,6,12,16,17-hexaazatricyclo[11.3.1.0^3,7]heptadeca-1(16),3,6,13(17),14-pentaene] | ≤ 100 |  | ≤ 100 |
| Cc1c2c(nn1C(C)(C)C#N)OCCCNc1nc(ncc1Cl)N2 [E191, 2-{14-Chloro-4-methyl-8-oxa-2,5,6,12,16,17-hexaazatricyclo [11.3.1.0^3,7]heptadeca-1(16),3,6,13(17),14-pentaen-5-yl}-2-methylpropanenitrile] | ≤ 100 |  | ≤ 100 |
